Assay [1] concerns RAW 264.7 cell line. Kind of assay: Confocal microscopy of FITC-labeled B11 peptide binding to RAW 264.7 cell line. In kind it is cell-based, murine. As to conditions: FIG. 5A. On the procedure: (§1) The cell line RAW 264.7 obtained from the American Type Culture Collection was grown in Dulbecco's modified Eagle's medium (DMEM) supplemented with 10% FCS, 1% penicillin, 1% L-glutamine, 1% nonessential amino acids, and 1% pyruvate (Biological Industries, Beit Haemek, Israel) to an 80% confluent culture at 37° C. in an atmosphere enriched with 5% CO2.
B11 peptide (50 μg) was conjugated to FITC (Biotium, Hayward, Calif.) as described by Sethi et al., [Sethi, K. K., et al. Cell Motil Cytoskeleton 52:231-241 (2002)]. For confocal microscopy, RAW 264.7 cells were grown in 8-well glass slides, Chamber Slide™ (Nunc), as described above. Cells were washed three times in cold PBS and incubated with the FITC-labeled mimotope for 5 min at 4° C. in serial dilutions of 1:2-1:100 in cold PBS. Slides were imaged immediately with a Zeiss 410 confocal laser scanning microscope.

Assay [2] relates to RAW 264.7 cell line. Kind of assay: FACS analysis of FITC-labeled mimotope binding to RAW 264.7 cell line. It counts as cell-based, murine. The protocol:
as §1
RAW 264.7 cells were grown in a 250-ml flask, washed 3 times in cold PBS, and harvested. Cells were then incubated for 15 min at 37° C., with the FITC-labeled peptide diluted 1:50, then washed 3 times in cold PBS. The fluorescence levels of 10,000 cell counts were determined by FACS (Becton Dickinson, Franklin Lakes, N.J.) and analyzed by CELLQuest™ software. Assay of competitive binding between mannose and the FITC-labeled B11 peptide was performed according to Nguyen and Hildreth, [Nguyen, D. G., and Hildreth, J. E. Eur J Immunol 33:483-493 (2003)].

Assay [3] has as its system IgG antibodies in sera of Mtb-infected mice. In kind it is binding, BALB/c mice.
The next assay relates to CS40 mAb. The assay can be described thus: Direct peptide ELISA with CS40 mAb. In kind it is binding. To be noted: synthetic peptide coated plates.
For another assay, the system named is CS40 anti-ManLAM mAb. Kind of assay: ELISA competition vs. ManLAM for CS40 mAb. In kind it is binding. To be noted: 50 μg/ml of peptide; FIG. 1B. On the procedure: Binding efficacy of the amino acid molecule to ManLAM binding antibodies may be evaluated by determining the magnitude of OD decrease when serial dilutions of phage clones/amino acid molecule are incubated with CS40 mAb. The phage clones/amino acid molecule with a higher affinity to mAb will show maximum inhibition of the binding of the mAb to ManLAM with the lowest number of phage particles or lowest amount of amino acid molecule, respectively.
ELISA competition assay was performed according to Kaur et al., [Kaur, D., et al. Microbiology 148:3049-3057 (2002)]. Briefly, plates were coated with 0.5 μg/well ManLAM. Plates were blocked as described above. The CS40 mAb (diluted 1:2000) was mixed with various concentrations of either phage particles in TBS/1% BSA ([…]) or peptides in PBS/1% BSA (0-200 μg/well). […] After washing (PBS), the ELISA procedure was performed as described above. Samples were all tested in triplicate
Efficiency of binding was evaluated by the magnitude of OD decrease when serial dilutions of phage clones were incubated with the CS40 mAb.
(In general: An ELISA detects its analyte on a solid surface through an enzyme-linked reagent.)

In assay [4] the test system is serum antibodies of TB patients. The assay can be described thus: Direct ELISA of human sera on B11 peptide or ManLAM coated plates. As to conditions: FIG. 4.
Description: Direct ELISA assays were performed by coating 96-well ELISA plates (O/N at 4° C.) with 5-20 μg peptide per well in PBS ManLAM 5 μg/well (50 μl/well). The plates were washed twice in phosphate buffered saline (PBS), blocked with PBS/1% BSA and then washed twice (PBS). Sera diluted in PBS/0.5% BSA (1:50 or 1:200) or CS40 mAb (1:2000) (50 μl per well) was added and incubated for 1 h at 37° C. After washing, alkaline phosphatase-labeled goat anti-mouse immunoglobulin (Sigma, St. Louis, Mo.) was added. Following 90-min incubation at 37° C., p-nitrophenyl phosphate (KPL, Gaithersburg, Md.) was added to the plates, and optical density was measured at 405 nm using ELISA reader (ELX-800UV, Bio-Tec instruments, Winooski, Vt.). In all ELISA procedures, samples were tested in triplicate.
The presence of serum antibodies in sera of TB patients that bind the B11 peptide was tested. […] Using ELISA, sera from Bacillus Calmette Guerin (BCG)-vaccinated individuals (n=10) was tested, as it is sometimes difficult to distinguish BCG-vaccinated individuals from TB patients [Ciesielski, S. D., J Fam Pract 40:76-80 (1995)].

Ends that are not written are not given here.

Three substances from patent US7892557B2, “Peptide mimotopes of mycobacterial mannosylated lipoglycans and uses thereof” (priority 2004, dated 2011) can be followed below.

For “FITC-conjugated B11 peptide: B11 peptide conjugated to FITC (ISLTEWSMWYRH; also: FITC-conjugated, position not given here)”, the “binding to macrophage cell line RAW 264.7 by confocal microscopy” value with RAW 264.7 cell line [1] was “bound”. Also, the “effect of D-mannose on binding to macrophages (FACS)” value in the assay on RAW 264.7 cell line [2] (0.125 M D-mannose added, FIG. 5C) is on record as “inhibited”. Also, in the assay on RAW 264.7 cell line [2] (FITC-labeled peptide diluted 1:50, FIG. 5B), the “binding to macrophage cell line RAW 264.7 by FACS analysis” value was “bound”.
As to “ISLTEWSMWYRH (random phage display library) [B11 peptide]”, the “IgG Abs in sera of Mtb-infected mice binding the antigen, vs. naive mice” value in assay [3] is on record as “significantly higher”. In addition, the “binding to CS40 mAb by direct ELISA” value in the assay on CS40 mAb is given as “bound”. Moreover, the “decrease in OD in competitive ELISA vs. ManLAM” value with CS40 anti-ManLAM mAb is on record as 100%. Further, the “anti-peptide antibody titers in BCG-vaccinated individuals vs. TB patients” value in assay [4] (BCG-vaccinated (n=10), p<0.001) is “significantly lower”. In assay [4] (TB patients (n=16) vs. healthy individuals (n=36)), the “antigen-binding antibody titers in sera of TB patients vs. healthy individuals” value is “Significantly higher titers”.
Regarding “CISLTEWSMWYRH (random phage display library) [SEQ ID NO: 10, B11 peptide with additional cysteine residue at the amino terminus]”, the “binding properties to ManLAM-binding antibodies compared with original peptide” value in assay [3] (ELISA with extra cysteine at the amino terminus, data not shown) is “maintained binding properties”.
